Test system: 843782-103-R-J1-PDC complex spheroid viability
Assay: Anticancer human tumor 843782-103-R-J1-PDC patient-derived lung adenocarcinoma cell line growth inhibition [RAS]
Details: for IC50: curve of first compound; for viability, T/C: stronger effect = lower value; active = viability on the fitted dose curve at most 10% of control; inactive = the rest
Procedure, shortened: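 Agents were tested in combination matrices in half-log decrements from a top concentration at or near clinical Cmax (10 microM if undetermined). Targets were multi-cell spheroids of tumour lines plus HUVEC and MSC stromal cells.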

[1] = second compound 0.0316 µM, first compound 0.00316 µM
[2] = second compound 0.0316 µM, first compound 0.01 µM
[3] = second compound 0.0316 µM, first compound 0.0316 µM
[4] = second compound 0.0316 µM, first compound 0.1 µM
[5] = second compound 0.0316 µM, first compound 0.316 µM
[6] = second compound 0.0316 µM, first compound 1 µM
[7] = second compound 0.1 µM, first compound 0.00316 µM
[8] = second compound 0.1 µM, first compound 0.01 µM
[9] = second compound 0.1 µM, first compound 0.0316 µM
[10] = second compound 0.1 µM, first compound 0.1 µM
[11] = second compound 0.1 µM, first compound 0.316 µM
[12] = second compound 0.1 µM, first compound 1 µM
[13] = second compound 0.316 µM, first compound 0.00316 µM
[14] = second compound 0.316 µM, first compound 0.01 µM
[15] = second compound 0.316 µM, first compound 0.0316 µM
[16] = second compound 0.316 µM, first compound 0.1 µM
[17] = second compound 0.316 µM, first compound 0.316 µM
[18] = second compound 0.316 µM, first compound 1 µM
[19] = second compound 1 µM, first compound 0.00316 µM
[20] = second compound 1 µM, first compound 0.01 µM
[21] = second compound 1 µM, first compound 0.0316 µM
[22] = second compound 1 µM, first compound 0.1 µM
[23] = second compound 1 µM, first compound 0.316 µM
[24] = second compound 1 µM, first compound 1 µM
[25] = second compound 3.16 µM, first compound 0.00316 µM
[26] = second compound 3.16 µM, first compound 0.01 µM
[27] = second compound 3.16 µM, first compound 0.0316 µM
[28] = second compound 3.16 µM, first compound 0.1 µM
[29] = second compound 3.16 µM, first compound 0.316 µM
[30] = second compound 3.16 µM, first compound 1 µM
[31] = second compound 10 µM, first compound 0.00316 µM
[32] = second compound 10 µM, first compound 0.01 µM
[33] = second compound 10 µM, first compound 0.0316 µM
[34] = second compound 10 µM, first compound 0.1 µM
[35] = second compound 10 µM, first compound 0.316 µM
[36] = second compound 10 µM, first compound 1 µM
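Also: viability read after seven days of compound exposure.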

C=CC(=O)Nc1cc(Nc2nccc(-c3cn(C)c4ccccc34)n2)c(OC)cc1N(C)CCN(C)C + C#Cc1c(F)ccc2cc(O)cc(-c3ncc4c(N5CC6CCC(C5)N6)nc(OCC56CCCN5CC(F)C6)nc4c3F)c12
> 1000 nM: IC50 (second compound 0.0316 µM) | IC50 (second compound 0.1 µM) | IC50 (second compound 0.316 µM)
inactive: viability, T/C [1] 108% | viability, T/C [2] 98.2% | viability, T/C [3] 101% | viability, T/C [4] 96.9% | viability, T/C [5] 94.6% | viability, T/C [6] 55.4% | viability, T/C [7] 104% | viability, T/C [8] 94.7% | viability, T/C [9] 102% | viability, T/C [10] 97% | viability, T/C [11] 88.2% | viability, T/C [12] 64.2% | viability, T/C [13] 105% | viability, T/C [14] 99.4% | viability, T/C [15] 101% | viability, T/C [16] 93.9% | viability, T/C [17] 80% | viability, T/C [18] 54.4% | viability, T/C [19] 97% | viability, T/C [20] 90.7% | viability, T/C [21] 99.9% | viability, T/C [22] 88.9% | viability, T/C [23] 65.3% | viability, T/C [24] 37.6% | viability, T/C [25] 90.3% | viability, T/C [26] 81.6% | viability, T/C [27] 88% | viability, T/C [28] 63.6% | viability, T/C [29] 46% | viability, T/C [30] 33.3% | viability, T/C [31] 55.9% | viability, T/C [32] 54% | viability, T/C [33] 56.5% | viability, T/C [34] 44.7% | viability, T/C [35] 33.1%
595 nM: IC50 (second compound 1 µM)
231 nM: IC50 (second compound 3.16 µM)
active: viability, T/C [36] 4.02%
57.6 nM: IC50 (second compound 10 µM)

O=C(c1ccc(F)c(F)c1Nc1ccc(I)cc1F)N1CC(O)([C@@H]2CCCCN2)C1 + C#Cc1c(F)ccc2cc(O)cc(-c3ncc4c(N5CC6CCC(C5)N6)nc(OCC56CCCN5CC(F)C6)nc4c3F)c12
129 nM: IC50 (second compound 1 µM)
35.2 nM: IC50 (second compound 3.16 µM)
inactive: viability, T/C [1] 107% | viability, T/C [2] 94.2% | viability, T/C [3] 92.5% | viability, T/C [4] 84.1% | viability, T/C [5] 45.9% | viability, T/C [6] 20% | viability, T/C [7] 107% | viability, T/C [8] 104% | viability, T/C [9] 89.5% | viability, T/C [10] 74% | viability, T/C [11] 39.4% | viability, T/C [12] 27.7% | viability, T/C [13] 102% | viability, T/C [14] 90.7% | viability, T/C [15] 89.1% | viability, T/C [16] 75.5% | viability, T/C [17] 39.6% | viability, T/C [18] 22.3% | viability, T/C [19] 96% | viability, T/C [20] 95.4% | viability, T/C [21] 81.8% | viability, T/C [22] 56.6% | viability, T/C [23] 28.9% | viability, T/C [24] 19.7% | viability, T/C [25] 81.5% | viability, T/C [26] 65.7% | viability, T/C [27] 53.8% | viability, T/C [28] 34.9% | viability, T/C [29] 26.4% | viability, T/C [30] 18.4% | viability, T/C [31] 56.3% | viability, T/C [32] 46.5% | viability, T/C [33] 34.5% | viability, T/C [34] 26.9% | viability, T/C [35] 19.2% | viability, T/C [36] 14%
231 nM: IC50 (second compound 0.1 µM)
230 nM: IC50 (second compound 0.316 µM)
6.34 nM: IC50 (second compound 10 µM)
287 nM: IC50 (second compound 0.0316 µM)

O=C(c1ccc(F)c(F)c1Nc1ccc(I)cc1F)N1CC(O)([C@@H]2CCCCN2)C1 + C=CC(=O)N1CCN(c2nc(OCC3CCCN3C)nc3c(F)c(-c4nc(N)cc(C)c4C(F)(F)F)c(Cl)cc23)C(C)C1
121 nM: IC50 (second compound 0.1 µM)
140 nM: IC50 (second compound 0.316 µM)
133 nM: IC50 (second compound 0.0316 µM)
162 nM: IC50 (second compound 0.01 µM)
inactive: viability, T/C (second compound 0.00316 µM, first compound 0.00316 µM) 85.4% | viability, T/C (second compound 0.00316 µM, first compound 0.01 µM) 92% | viability, T/C (second compound 0.00316 µM, first compound 0.0316 µM) 77.5% | viability, T/C (second compound 0.00316 µM, first compound 0.1 µM) 61% | viability, T/C (second compound 0.00316 µM, first compound 0.316 µM) 38.4% | viability, T/C (second compound 0.00316 µM, first compound 1 µM) 24.3% | viability, T/C (second compound 0.01 µM, first compound 0.00316 µM) 87.5% | viability, T/C (second compound 0.01 µM, first compound 0.01 µM) 85.4% | viability, T/C (second compound 0.01 µM, first compound 0.0316 µM) 73.2% | viability, T/C (second compound 0.01 µM, first compound 0.1 µM) 59.5% | viability, T/C (second compound 0.01 µM, first compound 0.316 µM) 37.9% | viability, T/C (second compound 0.01 µM, first compound 1 µM) 23.5% | viability, T/C [1] 83.4% | viability, T/C [2] 80.2% | viability, T/C [3] 71% | viability, T/C [4] 53.6% | viability, T/C [5] 36.8% | viability, T/C [6] 20.9% | viability, T/C [7] 89.6% | viability, T/C [8] 79.6% | viability, T/C [9] 68.6% | viability, T/C [10] 52.7% | viability, T/C [11] 35.9% | viability, T/C [12] 19.7% | viability, T/C [13] 84.5% | viability, T/C [14] 79.9% | viability, T/C [15] 68.3% | viability, T/C [16] 51.6% | viability, T/C [17] 42% | viability, T/C [18] 25.9% | viability, T/C [19] 88.8% | viability, T/C [20] 75.5% | viability, T/C [21] 70.8% | viability, T/C [22] 53.8% | viability, T/C [23] 38.5% | viability, T/C [24] 25.5%
173 nM: IC50 (second compound 0.00316 µM)
138 nM: IC50 (second compound 1 µM)

Source: PubChem BioAssay AID2060883 (Molecular Pharmacology Branch, DTP, NCI, 2025)
